Laboratory results from paper PMC9324262, “Selective CDK9 Inhibition by Natural Compound Toyocamycin in Cancer Cells” (Cancers, 2022).
Several values for one entry are separate records, joined by “and”; a condition that tells them apart may be missing. Identical values can stand only once.

Columns and labels:
histone 3 and histone 4 = test: histone acetylation by mass spectrometry; assay type: cell-based, human; settings: eleven lysine residues, YB5 cells
Method: As described previously, histone proteins were acid-extracted (0.2 N HCl) for 16 h. Histone acetylation levels were quantified on histone 3 and histone 4 by a Thermo TSQ Quantum Access triple quadrupole (QqQ) mass spectrometer (Thermofisher Scientific, Waltham, MA, USA).

RNA-Pol II Ser2-P = test: Western blot, RNA Pol II and phospho-Pol II Ser2; assay type: cell-based, human; settings: 6 h
Method: YB5 cells were harvested in 50 mM Tris-HCl, 1% NP-40, 1 mM EDTA, 1 mM EGTA, 0.25% sodium deoxycholate, 150 mM NaCl, 50 mM sodium fluoride, and 1X Complete protease cocktail (Roche, Basel, Switzerland) with 1 mM PMSF. The total protein concentration was measured in all samples by standard BCA protocol (Pierce-23225, Thermo Scientific, Waltham, MA, USA) to ensure that an equal amount of protein was added to each sample. Protein extracts were run on 12% SDS–PAGE precast gels (Bio-Rad, Hercules, CA, USA, 345-0118). Proteins were transferred to polyvinylidene difluoride (PVDF) membranes in 10 mmol/L CAPS (pH-11) containing 10% methanol and detected by using specific primary antibodies, horseradish peroxidase–conjugated secondary antibodies (GE Healthcare, Chicago, IL, USA), and an enhanced chemiluminescence reagent (Pierce). PVDF membranes were incubated with specific primary antibodies (actin—A5441, Sigma, St. Louis, MO, USA; HA-tagged—H9608, Sigma; FLAG-tagged—F3165, Sigma). FLAG- and HA-tagged CDK9 plasmids were a generous gift from Dr Bassel E. Sawaya (Temple University). For CDK9 target modulation, HCT116 colon cancer cells were treated with toyocamycin or known CDK9 inhibitor BAY1251152 (Selleckchem, Houston, TX, USA). Whole cell extracts were obtained by lysing cells with 25 mM Tris (pH 7.3) and 1% sodium dodecyl sulfate (SDS). After sonication, total protein concentrations were determined using Bradford protein assay. The following primary antibodies were used to investigate the effect of CDK9 inhibition: Pol II against the N-term region (sc-55492, Santa Cruz, Dallas, TX, USA), Pol II against the C-term region (39097, Active motif, Carlsbad, CA, USA), Pol II phospho CTD ser2 (14-9802-82, Invitrogen, Waltham, MA, USA), Rb (ab181616, Abcam, Cambridge, UK), Rb phospho T826 (ab133446, Abcam, Cambridge, UK), CDK9 (ab39098, Abcam, Cambridge, UK), and actin (ab1801, Abcam, Cambridge, UK). Images were acquired with an Image Quant LAS4000 device from GE Healthcare Life Sciences. Band intensity quantifications were calculated using ImageJ software, edition 1.53 [27].

CDK9 = test: Western blot, CDK9 protein level; assay type: cell-based, human; settings: HCT116, 50–500 nM, 6 h
Method: YB5 cells were harvested in 50 mM Tris-HCl, 1% NP-40, 1 mM EDTA, 1 mM EGTA, 0.25% sodium deoxycholate, 150 mM NaCl, 50 mM sodium fluoride, and 1X Complete protease cocktail (Roche, Basel, Switzerland) with 1 mM PMSF. The total protein concentration was measured in all samples by standard BCA protocol (Pierce-23225, Thermo Scientific, Waltham, MA, USA) to ensure that an equal amount of protein was added to each sample. Protein extracts were run on 12% SDS–PAGE precast gels (Bio-Rad, Hercules, CA, USA, 345-0118). Proteins were transferred to polyvinylidene difluoride (PVDF) membranes in 10 mmol/L CAPS (pH-11) containing 10% methanol and detected by using specific primary antibodies, horseradish peroxidase–conjugated secondary antibodies (GE Healthcare, Chicago, IL, USA), and an enhanced chemiluminescence reagent (Pierce). PVDF membranes were incubated with specific primary antibodies (actin—A5441, Sigma, St. Louis, MO, USA; HA-tagged—H9608, Sigma; FLAG-tagged—F3165, Sigma). FLAG- and HA-tagged CDK9 plasmids were a generous gift from Dr Bassel E. Sawaya (Temple University). […] After sonication, total protein concentrations were determined using Bradford protein assay. […] Band intensity quantifications were calculated using ImageJ software, edition 1.53 [27].

CDK6/Cyclin D3 = target: T1, CDK6/Cyclin D3 (Homo sapiens, UniProt Q00534); test: in vitro kinase assay CDK6/Cyclin D3 (Kinase-Glo Plus); assay type: biochemical
T1 construct: purchased BPS Bioscience
Method: (§1) The in vitro enzymatic assays were conducted at BPS Bioscience. CDK9/Cyclin T1, CDK2/Cyclin 2A, CDK4/Cyclin D3, and CDK6/Cyclin D3 enzymatic activities were tested with an ATP Kinase-Glo Plus Luminescence kinase assay kit (Promega, V6073, Madison, WI, USA), while the CDK7/Cyclin H/MAT1 activities were tested using ADP-Glo Kinase (Promega, V6930). These assays measure kinase activity by quantifying the amount of ATP or ADP remaining in solution following a kinase reaction. The luminescent signal from the assay is correlated to the amount of ATP or ADP present and is inversely correlated to the kinase activity. The compounds were diluted to 10% DMSO and were added to the reaction so that the final concentration of DMSO was 1% in all reactions. All enzymatic reactions were conducted at 30 °C for 60 min. […] After the enzymatic reaction, the luminescence signal was measured using a BioTek Synergy 2 microplate reader (Agilent, Santa Clara, CA, USA). Kinase activity assays were performed in duplicate at each concentration and the percent of kinase activity was calculated as a ratio of luminescence intensities in the absence or in presence of the compounds. […] IC50 values were determined by the concentration causing a half-maximal percent activity (BPS Bioscience, San Diego, CA, USA).

CDK7/Cyclin H/MAT1 = target: T2, CDK7/Cyclin H/MAT1 (Homo sapiens, UniProt P50613); test: in vitro kinase assay CDK7/Cyclin H/MAT1 (ADP-Glo); assay type: biochemical
T2 construct: purchased BPS Bioscience
Method: as §1

HCT116 cells = test: cell cycle analysis by flow cytometry; assay type: cell-based, human
Method: For cell cycle analysis, cells were cultured in T25 flasks, trypsinized, and washed with PBS. Then, 1 × 10^6 cells were fixed in 100% cold ethanol overnight at −20 °C. Cells were then washed with PBS and treated with 100 μg/mL RNase A (Invitrogen, Waltham, MA USA) for 20 min, at 37 °C. DNA was stained with 5 μg/mL propidium iodide (Sigma, St. Louis, MO, USA). The cell cycle was analyzed by flow cytometry using a Guava® easyCyte HT System (Millipore) with GuavaSoft 3.2 software.

CDK9/Cyclin T1 = target: T3, CDK9/Cyclin T1 (Homo sapiens, UniProt P50750); test: in vitro kinase assay CDK9/Cyclin T1 (Kinase-Glo Plus luminescence); assay type: biochemical
T3 construct: purchased BPS Bioscience
Method: as §1

[1] = 6 h treatment followed by 18 h without exposure

T3 sequence (P50750 whole entry): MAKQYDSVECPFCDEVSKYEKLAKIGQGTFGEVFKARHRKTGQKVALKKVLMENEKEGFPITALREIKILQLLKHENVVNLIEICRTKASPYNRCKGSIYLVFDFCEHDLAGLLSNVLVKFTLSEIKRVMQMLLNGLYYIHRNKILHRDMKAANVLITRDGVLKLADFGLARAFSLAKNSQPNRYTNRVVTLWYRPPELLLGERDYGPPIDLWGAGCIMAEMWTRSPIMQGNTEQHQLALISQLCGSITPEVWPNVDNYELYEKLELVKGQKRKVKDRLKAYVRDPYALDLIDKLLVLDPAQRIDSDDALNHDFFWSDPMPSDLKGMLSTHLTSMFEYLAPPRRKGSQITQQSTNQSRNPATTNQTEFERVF
T3 sequence (O60563 whole entry partner): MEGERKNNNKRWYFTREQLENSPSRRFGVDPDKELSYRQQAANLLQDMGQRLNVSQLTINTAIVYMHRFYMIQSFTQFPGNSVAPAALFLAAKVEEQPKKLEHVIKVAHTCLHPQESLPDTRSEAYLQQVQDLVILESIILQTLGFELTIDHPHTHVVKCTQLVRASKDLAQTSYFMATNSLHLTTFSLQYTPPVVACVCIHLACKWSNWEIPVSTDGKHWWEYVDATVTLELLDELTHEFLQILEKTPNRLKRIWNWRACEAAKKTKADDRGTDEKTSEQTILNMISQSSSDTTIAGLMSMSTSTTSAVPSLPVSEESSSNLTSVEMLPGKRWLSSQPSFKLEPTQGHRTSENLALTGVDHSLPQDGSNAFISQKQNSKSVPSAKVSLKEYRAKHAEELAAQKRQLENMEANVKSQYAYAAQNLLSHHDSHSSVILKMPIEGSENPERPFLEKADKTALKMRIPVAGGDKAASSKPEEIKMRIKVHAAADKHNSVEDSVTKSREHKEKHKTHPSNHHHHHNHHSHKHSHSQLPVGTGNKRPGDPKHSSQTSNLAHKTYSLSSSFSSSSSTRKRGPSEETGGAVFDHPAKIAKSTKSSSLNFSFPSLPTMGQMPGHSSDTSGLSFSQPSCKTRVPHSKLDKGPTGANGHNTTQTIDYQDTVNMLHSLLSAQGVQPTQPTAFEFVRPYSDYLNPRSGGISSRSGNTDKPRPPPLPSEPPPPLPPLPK
T2 sequence (P50613 whole entry): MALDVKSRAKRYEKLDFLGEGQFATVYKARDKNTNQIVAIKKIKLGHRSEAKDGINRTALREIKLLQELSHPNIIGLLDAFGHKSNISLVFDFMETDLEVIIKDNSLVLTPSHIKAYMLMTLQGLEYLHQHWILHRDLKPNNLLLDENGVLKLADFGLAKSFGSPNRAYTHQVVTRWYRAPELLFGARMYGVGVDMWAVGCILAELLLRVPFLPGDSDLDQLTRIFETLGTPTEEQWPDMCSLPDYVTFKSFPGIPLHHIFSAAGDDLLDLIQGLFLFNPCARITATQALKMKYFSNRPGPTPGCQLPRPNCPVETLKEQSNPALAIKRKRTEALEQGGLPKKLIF
T2 sequence (P51946 whole entry partner): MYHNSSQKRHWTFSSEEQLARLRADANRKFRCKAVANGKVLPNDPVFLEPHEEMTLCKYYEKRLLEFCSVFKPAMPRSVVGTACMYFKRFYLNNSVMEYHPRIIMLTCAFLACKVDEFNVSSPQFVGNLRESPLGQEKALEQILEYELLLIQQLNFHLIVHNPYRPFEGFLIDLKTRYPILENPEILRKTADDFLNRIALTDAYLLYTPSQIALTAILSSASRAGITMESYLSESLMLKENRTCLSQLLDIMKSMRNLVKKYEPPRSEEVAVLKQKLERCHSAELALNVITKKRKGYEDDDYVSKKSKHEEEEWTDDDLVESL
T2 sequence (P51948 whole entry partner): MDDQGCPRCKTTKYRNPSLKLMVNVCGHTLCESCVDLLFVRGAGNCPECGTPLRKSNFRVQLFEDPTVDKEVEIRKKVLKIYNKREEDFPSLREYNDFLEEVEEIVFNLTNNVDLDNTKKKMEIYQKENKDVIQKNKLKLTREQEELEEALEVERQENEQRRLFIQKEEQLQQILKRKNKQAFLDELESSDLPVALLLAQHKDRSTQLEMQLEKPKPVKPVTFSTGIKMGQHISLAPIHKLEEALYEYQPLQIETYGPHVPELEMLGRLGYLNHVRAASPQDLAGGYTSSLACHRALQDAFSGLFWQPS
T1 sequence (Q00534 whole entry): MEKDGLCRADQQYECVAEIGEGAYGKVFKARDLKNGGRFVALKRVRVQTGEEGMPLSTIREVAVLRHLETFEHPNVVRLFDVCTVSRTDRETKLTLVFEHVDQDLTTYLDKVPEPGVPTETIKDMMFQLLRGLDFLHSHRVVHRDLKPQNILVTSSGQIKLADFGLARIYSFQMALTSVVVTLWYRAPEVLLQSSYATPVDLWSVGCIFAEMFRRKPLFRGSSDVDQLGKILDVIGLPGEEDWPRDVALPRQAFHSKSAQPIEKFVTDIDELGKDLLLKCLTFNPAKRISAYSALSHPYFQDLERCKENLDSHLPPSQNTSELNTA
T1 sequence (P30281 whole entry partner): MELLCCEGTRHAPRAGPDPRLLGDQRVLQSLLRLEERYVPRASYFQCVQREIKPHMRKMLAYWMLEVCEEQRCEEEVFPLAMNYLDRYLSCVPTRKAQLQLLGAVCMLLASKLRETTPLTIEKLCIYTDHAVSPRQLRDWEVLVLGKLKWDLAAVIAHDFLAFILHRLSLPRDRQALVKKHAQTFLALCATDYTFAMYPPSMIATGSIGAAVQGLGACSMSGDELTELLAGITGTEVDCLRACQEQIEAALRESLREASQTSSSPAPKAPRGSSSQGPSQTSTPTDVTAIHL

SMILES: N#Cc1cn([C@@H]2O[C@H](CO)[C@@H](O)[C@H]2O)c2ncnc(N)c12 [toyocamycin, 7-Deaza-7-cyanoadenosine]
- histone 3 and 4 lysine acetylation levels (histone 3 and histone 4): did not modify lysine acetylation levels
- RNA-Pol II ser 2 phosphorylation (RNA-Pol II Ser2-P; HCT116, 350–500 nM): significantly reduced
- RNA Pol II band intensity, Pol II C-terminal antibody (RNA-Pol II Ser2-P; HCT116, above 350 nM): reduced the RNA Pol II band intensity
- CDK9 levels (CDK9): did not change
- IC50 (CDK6/Cyclin D3): > 10000 nM
- IC50 (CDK7/Cyclin H/MAT1): 2800 nM
- times less enzymatic inhibition of CDK7 as compared to CDK9 (CDK7/Cyclin H/MAT1; CDK7/Cyclin H/MAT1 vs CDK9/CycT1): 35 times
- apoptotic cells (HCT116 cells; [1]): 10%
- cell cycle (HCT116 cells; [1]): not significantly impacted
- cell cycle (HCT116 cells; 24 h treatment, 500–1000 nM): significantly blocked the cell cycle
- IC50 (CDK9/Cyclin T1; IC50, 10 µM ATP, 30 °C, 60 min): 79 nM and 79.5 nM
- IC50 (CDK9/Cyclin T1; IC50, as quoted in docking section): 80 nM
